Molecules are shown by their SMILES.

Chain of TEM-1 (P62593 24-286 limits assumed): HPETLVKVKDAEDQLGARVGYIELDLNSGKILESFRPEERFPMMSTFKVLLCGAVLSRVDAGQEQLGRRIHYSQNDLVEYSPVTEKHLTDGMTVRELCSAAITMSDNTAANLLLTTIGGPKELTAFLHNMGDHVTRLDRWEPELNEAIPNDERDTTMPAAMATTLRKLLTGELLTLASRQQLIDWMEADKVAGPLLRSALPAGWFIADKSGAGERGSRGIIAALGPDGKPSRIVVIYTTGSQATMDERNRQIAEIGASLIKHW
Chain of OXA-10 (P14489 20-266): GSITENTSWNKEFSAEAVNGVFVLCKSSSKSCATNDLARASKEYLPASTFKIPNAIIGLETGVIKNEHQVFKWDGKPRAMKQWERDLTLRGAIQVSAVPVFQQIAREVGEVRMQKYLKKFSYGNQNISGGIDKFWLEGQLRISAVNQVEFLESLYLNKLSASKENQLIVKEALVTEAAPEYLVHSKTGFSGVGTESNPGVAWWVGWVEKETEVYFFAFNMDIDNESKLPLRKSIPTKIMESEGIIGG
Chain of KPC-2 (Q9F663 25-293 limits assumed): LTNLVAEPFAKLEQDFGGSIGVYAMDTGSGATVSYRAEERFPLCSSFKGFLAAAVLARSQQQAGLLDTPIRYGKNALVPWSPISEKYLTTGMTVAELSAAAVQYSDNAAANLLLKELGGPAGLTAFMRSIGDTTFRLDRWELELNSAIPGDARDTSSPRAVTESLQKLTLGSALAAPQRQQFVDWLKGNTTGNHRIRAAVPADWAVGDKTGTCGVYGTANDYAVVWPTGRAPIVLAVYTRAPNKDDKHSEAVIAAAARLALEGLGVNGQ

The first experiment relates to E. Coli NCTC 13353. Kind of experiment: MIC by broth microdilution, β-lactam antibiotic combined with β-lactamase inhibitor. Format: cell-based. Conditions: Escherichia coli, NCTC13353; E. Coli NCTC 13353, expresses CTX-M-15; MIC of the antibiotic, inhibitor fixed at 4 mg/L; read-out: Antibacterial Activity (MIC50). The procedure:
(§1) The minimum inhibitory concentration (MIC) of the Example compounds (at a concentration of 4 mg/L) in combination with β-lactam antibiotics (ceftazidime, cefepime, meropenem, imipenem, aztreonam) against bacterial strains was tested using the broth microdilution method recommended by the Clinical and Laboratory Standards Institute (CLSI, formerly NCCLs) [Methods for Dilution Antimicrobial Susceptibility Tests for Bacteria That Grow Aerobically; Approved Standard-tenth Edition M07-A10, 2015]. The specific test materials and procedures are as follows.
(§2) The standard strains used in this experiment were purchased ATCC strains. The clinical strains used were strains resistant to some or all marketed β-lactam antibiotics, isolated and identified by domestic public hospitals, and the types of β-lactamases they express were determined. Before the experiment, each bacterial strain was purified by streaking single colonies on an agar plate, and fresh bacterial cultures grown overnight at 37°C were appropriately diluted for the experiment.
(§3) CAMHB (Cation Adjusted Mueller-Hinton) medium, incubated at 35-37°C in air for 16-20 h.
(§4) CAMHB Formula: Acid-hydrolyzed casein (17.5 g/L), beef extract (3.0 g/L), soluble starch (1.5 g/L), calcium ions (20-25 mg/L), magnesium ions (10-12.5 mg/L).
(§5) Stock solutions at 4 times the working concentration were prepared in CAMHB broth for the combinations of antibiotics (ceftazidime, cefepime, meropenem, aztreonam) and Example compounds. The final concentrations of antibiotics in the stock solutions were 256, 128, 64, 32, 16, 8, 4, 2, 1, 0.5, 0.25, 0.125 mg/L, respectively. The final concentration of avibactam, relebactam, or Example compounds was 4 mg/L.
(§6) Several colonies were picked from an 18-24 h cultured agar plate and suspended directly in sterile physiological saline to prepare a bacterial suspension. The turbidity of the suspension was adjusted to 0.5 McFarland standard. The adjusted bacterial suspension was diluted with CAMHB broth to (4-8) × 10^5 CFU/mL and used immediately.
(§7) Test Group: 50 µL of the antibiotic (ceftazidime, cefepime, meropenem, imipenem, aztreonam) stock solution and 50 µL of the β-lactamase inhibitor (avibactam, relebactam, or Example compound) stock solution were added to wells 1 to 12 of a sterile 96-well polystyrene plate. Then, 100 µL of CAMHB containing the test bacterial suspension was added to each well, making a total volume of 200 µL per well. The final drug concentrations in the wells were 64, 32, 16, 8, 4, 2, 1, 0.5, 0.25, 0.125, 0.06, 0.03 mg/L, respectively. […]
(§8) The inoculated 96-well polystyrene plates were sealed and placed in an incubator at 35-37°C for 16-20 h before reading the results. […]
Usually MIC50 stands for an inhibitory concentration at the 50% level, which refers to growth in some studies and to a panel of isolates in others. For the molecule `CC(C)(O/N=C(\C(=O)N[C@@H]1C(=O)N2C(C(=O)[O-])=C(C[n+]3ccccc3)CS[C@H]12)c1csc(N)n1)C(=O)O` [Ceftazidime], the MIC50 is > 10 mg/L.

Another experiment has as its system E. coli ATCC 25922. The description is as above. It is filed as cell-based. The following applies: Escherichia coli, ATCC25922; E. coli ATCC 25922, β-lactamase expressed: -; MIC of the antibiotic, inhibitor fixed at 4 mg/L; read-out: Antibacterial Activity (MIC50). How it is done:
as §1, §2, §3, §4, §5, §6, §7, §8
Consider `CC(C)(O/N=C(\C(=O)N[C@@H]1C(=O)N2C(C(=O)[O-])=C(C[n+]3ccccc3)CS[C@H]12)c1csc(N)n1)C(=O)O` [Ceftazidime], for which the MIC50 fell in the range of 0.1 to 1 mg/L.

Another experiment has as its system E. coli ATCC 35218. The description is as above. Format: cell-based. The following applies: Escherichia coli, ATCC35218; E. coli ATCC 35218, expresses TEM-1; MIC of the antibiotic, inhibitor fixed at 4 mg/L; read-out: Antibacterial Activity (MIC50). The procedure:
as §1, §2, §3, §4, §5, §6, §7, §8
In the case of `CC(C)(O/N=C(\C(=O)N[C@@H]1C(=O)N2C(C(=O)[O-])=C(C[n+]3ccccc3)CS[C@H]12)c1csc(N)n1)C(=O)O` [Ceftazidime], the MIC50 is 0.1 to 1 mg/L.

For a further experiment, the system named is P. aeruginosa ATCC 27853. The experiment is described as above. The following applies: Pseudomonas aeruginosa, ATCC27853; P. aeruginosa ATCC 27853, expresses AmpC; MIC of the antibiotic, inhibitor fixed at 4 mg/L; read-out: Antibacterial Activity (MIC50). Format: cell-based. How it is done:
as §1, §2, §3, §4, §5, §6, §7, §8
Turning to `CC(C)(O/N=C(\C(=O)N[C@@H]1C(=O)N2C(C(=O)[O-])=C(C[n+]3ccccc3)CS[C@H]12)c1csc(N)n1)C(=O)O` [Ceftazidime], the MIC50 lay within 1 to 10 mg/L.

The next experiment deals with K.Pneumoniae BAA-1705. Described as above. Format: cell-based. The following applies: Klebsiella pneumoniae, BAA1705; K.Pneumoniae BAA-1705, expresses KPC-2; MIC of the antibiotic, inhibitor fixed at 4 mg/L; read-out: Antibacterial Activity (MIC50).
Experimental: CAMHB (Cation Adjusted Mueller-Hinton) medium, incubated at 35-37°C in air for 16-20 h. […]
Turning to `CC(C)(O/N=C(\C(=O)N[C@@H]1C(=O)N2C(C(=O)[O-])=C(C[n+]3ccccc3)CS[C@H]12)c1csc(N)n1)C(=O)O` [Ceftazidime], the MIC50 is > 10 mg/L.

Another experiment has as its target KPC-2 (Klebsiella pneumoniae, UniProt Q9F663). Kind of experiment: β-Lactamase inhibitory activity test, nitrocefin substrate. It is filed as biochemical.
Conditions: not given
How it is done:
(§9) The IC50 of β-lactamase inhibitors against β-lactamases was tested using nitrocefin as the substrate. The enzyme and serially diluted β-lactamase inhibitor were incubated in 50 mM phosphate buffer (containing 0.1 mg/mL bovine serum albumin) at 37°C for 10 minutes. The reaction was initiated by adding 100 µM nitrocefin, and the reaction temperature was set to 37°C. The absorbance at 490 nm was recorded every minute for a total of 1 hour. The initial reaction rate was calculated, and the IC50 was calculated using GraphPad Prism software. Table 4. Inhibitory activity (IC50, mg/L) of compounds against β-lactamases
As usually defined, the IC50 is the midpoint of a concentration-inhibition curve. `O=C1N2Cc3c(ccn3S(=O)(=O)c3ccccc3)C(C2)N1OS(=O)(=O)O` (centres unmarked) [Example 1 Compound]: the IC50 was < 1 µM.
For `CS(=O)(=O)n1ccc2c1CN1CC2N(OS(=O)(=O)O)C1=O` (centres unmarked) [Example 2 Compound], the IC50 is < 1 µM.
Still for that read-out and setting: for `CS(=O)(=O)n1ccc2c1CN1C[C@@H]2N(OS(=O)(=O)O)C1=O` [Example 3 Compound] the value was < 1 µM.
Still for that read-out and setting: the figure for `CCS(=O)(=O)n1ccc2c1CN1C[C@@H]2N(OS(=O)(=O)O)C1=O` [Example 4 Compound] is < 1 µM; for `O=C1N2Cc3c(ccn3S(=O)(=O)c3cccnc3)[C@H](C2)N1OS(=O)(=O)O` [Example 10 Compound] it is < 1 µM; for `Cn1cc(S(=O)(=O)n2ccc3c2CN2C[C@@H]3N(OS(=O)(=O)O)C2=O)cn1` [Example 11 Compound] it is < 1 µM.
On the same count and under the same terms, for `CS(=O)(=O)n1ccc2c1C(C(N)=O)N1CC2N(OS(=O)(=O)O)C1=O` (centres unmarked) [Example 14 Compound] the value was < 1 µM; for `NC(=O)C1c2c(ccn2S(=O)(=O)C2CC2)C2CN1C(=O)N2OS(=O)(=O)O` (centres unmarked) [Example 15 Compound], > 100 µM.

Another experiment has as its target OXA-10 (Pseudomonas aeruginosa, UniProt P14489). The description is as above. It is filed as biochemical.
Conditions: not given
How it is done: as §9
Consider `O=C1N2Cc3c(ccn3S(=O)(=O)c3ccccc3)C(C2)N1OS(=O)(=O)O` (centres unmarked) [Example 1 Compound], for which the IC50 is < 1 µM.
With `CS(=O)(=O)n1ccc2c1CN1CC2N(OS(=O)(=O)O)C1=O` (centres unmarked) [Example 2 Compound], the IC50 is < 1 µM.
Same read-out and setting: the figure for `CS(=O)(=O)n1ccc2c1CN1C[C@@H]2N(OS(=O)(=O)O)C1=O` [Example 3 Compound] is < 1 µM.

The target of a further experiment is OXA-23 (Acinetobacter baumannii, UniProt Q9L4P2). Described as above. It is filed as biochemical.
Chain of OXA-23 (Q9L4P2 18-273): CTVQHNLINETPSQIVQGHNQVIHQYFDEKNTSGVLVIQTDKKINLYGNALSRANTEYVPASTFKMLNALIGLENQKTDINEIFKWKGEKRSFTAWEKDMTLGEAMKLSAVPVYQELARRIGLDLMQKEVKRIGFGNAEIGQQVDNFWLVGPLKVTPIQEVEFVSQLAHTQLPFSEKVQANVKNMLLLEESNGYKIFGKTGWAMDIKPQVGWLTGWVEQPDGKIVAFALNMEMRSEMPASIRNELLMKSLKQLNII
Conditions: not given
How it is done: as §9
For the molecule `O=C1N2Cc3c(ccn3S(=O)(=O)c3ccccc3)C(C2)N1OS(=O)(=O)O` (centres unmarked) [Example 1 Compound], the IC50 was < 1 µM.
Still for that read-out and setting: the figure for `CS(=O)(=O)n1ccc2c1CN1CC2N(OS(=O)(=O)O)C1=O` (centres unmarked) [Example 2 Compound] is < 1 µM; for `CS(=O)(=O)n1ccc2c1CN1C[C@@H]2N(OS(=O)(=O)O)C1=O` [Example 3 Compound] it is < 1 µM.
Same read-out and setting: for `CCS(=O)(=O)n1ccc2c1CN1C[C@@H]2N(OS(=O)(=O)O)C1=O` [Example 4 Compound] the value was 1 to 10 µM; for `O=C1N2Cc3c(ccn3S(=O)(=O)c3cccnc3)[C@H](C2)N1OS(=O)(=O)O` [Example 10 Compound], < 1 µM; for `Cn1cc(S(=O)(=O)n2ccc3c2CN2C[C@@H]3N(OS(=O)(=O)O)C2=O)cn1` [Example 11 Compound], 1 to 10 µM.
Same read-out and setting: for `CS(=O)(=O)n1ccc2c1C(C(N)=O)N1CC2N(OS(=O)(=O)O)C1=O` (centres unmarked) [Example 14 Compound] the value was 10 to 100 µM; for `NC(=O)C1c2c(ccn2S(=O)(=O)C2CC2)C2CN1C(=O)N2OS(=O)(=O)O` (centres unmarked) [Example 15 Compound], > 100 µM.

The next experiment addresses TEM-1 (Escherichia coli, UniProt P62593). The description is as above. Format: biochemical.
Conditions: not given
How it is done:
as §9
Consider `CCS(=O)(=O)n1ccc2c1CN1C[C@@H]2N(OS(=O)(=O)O)C1=O` [Example 4 Compound], for which the IC50 is < 1 µM.
On to `O=C1N2Cc3c(ccn3S(=O)(=O)c3cccnc3)[C@H](C2)N1OS(=O)(=O)O` [Example 10 Compound], for which the IC50 was < 1 µM.
Regarding `Cn1cc(S(=O)(=O)n2ccc3c2CN2C[C@@H]3N(OS(=O)(=O)O)C2=O)cn1` [Example 11 Compound], the concentration for half-maximal inhibition (IC50) was < 1 µM.
Still for that read-out and setting: for `CS(=O)(=O)n1ccc2c1C(C(N)=O)N1CC2N(OS(=O)(=O)O)C1=O` (centres unmarked) [Example 14 Compound] the value was < 1 µM; for `NC(=O)C1c2c(ccn2S(=O)(=O)C2CC2)C2CN1C(=O)N2OS(=O)(=O)O` (centres unmarked) [Example 15 Compound], > 100 µM.

The experiment is the same for the next values; noted with them: TEM-1, enzyme family A; 100 µM nitrocefin, 37°C, 10 minutes preincubation; read-out: Inhibitory activity (IC50).
As to `O=C1N2Cc3c(ccn3S(=O)(=O)c3ccccc3)C(C2)N1OS(=O)(=O)O` (centres unmarked) [Example 1 Compound], the IC50 is < 1 µM.
On the same count and under the same terms, for `CS(=O)(=O)n1ccc2c1CN1CC2N(OS(=O)(=O)O)C1=O` (centres unmarked) [Example 2 Compound] the value was < 1 µM.
As to `CS(=O)(=O)n1ccc2c1CN1C[C@@H]2N(OS(=O)(=O)O)C1=O` [Example 3 Compound], the IC50 was < 1 µM.

These data come from patent EP4759816A1, “UREA-CONTAINING […] ß-LACTAMASE INHIBITOR, PREPARATION METHOD THEREFOR AND USE THEREOF” (priority 2023, dated 2025).
